According to paper doi:10.1101/2021.02.21.432137v1 (biorxiv, 2021):
Like-named read-outs stand apart in the source and are kept apart here.

Columns and labels:
[1] = target: T1, human recombinant STK3 (MST2) (Homo sapiens, UniProt Q13188); test: radiometric kinase assay; format: biochemical
T1 sequence (Q13188 1-491 limits assumed): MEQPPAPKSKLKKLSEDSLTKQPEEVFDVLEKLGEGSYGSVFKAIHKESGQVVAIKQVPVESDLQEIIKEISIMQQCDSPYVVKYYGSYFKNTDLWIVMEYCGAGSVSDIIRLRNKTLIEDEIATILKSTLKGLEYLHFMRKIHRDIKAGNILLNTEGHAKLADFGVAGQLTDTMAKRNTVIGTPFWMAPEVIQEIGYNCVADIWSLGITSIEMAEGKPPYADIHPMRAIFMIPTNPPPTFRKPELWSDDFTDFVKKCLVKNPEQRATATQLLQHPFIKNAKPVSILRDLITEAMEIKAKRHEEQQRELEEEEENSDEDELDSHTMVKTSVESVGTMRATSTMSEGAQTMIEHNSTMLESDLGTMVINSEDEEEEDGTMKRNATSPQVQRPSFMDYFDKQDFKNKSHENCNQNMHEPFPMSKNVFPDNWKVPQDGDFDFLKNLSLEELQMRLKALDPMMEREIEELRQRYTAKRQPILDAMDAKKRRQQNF

[2] = target: T2, NanoLuc-STK3 (STK3-NanoBRET) (Homo sapiens, UniProt Q13188); test: NanoBRET tracer displacement in live cells; format: cell-based
T2 sequence (Q13188 1-491): T1 sequence (Q13188 1-491 limits assumed)

[3] = target: human recombinant STK26 (aka MST4) (Homo sapiens, UniProt Q9P289); conditions: inhibitor
Sequence of human recombinant STK26 (aka MST4) (Q9P289 2-416): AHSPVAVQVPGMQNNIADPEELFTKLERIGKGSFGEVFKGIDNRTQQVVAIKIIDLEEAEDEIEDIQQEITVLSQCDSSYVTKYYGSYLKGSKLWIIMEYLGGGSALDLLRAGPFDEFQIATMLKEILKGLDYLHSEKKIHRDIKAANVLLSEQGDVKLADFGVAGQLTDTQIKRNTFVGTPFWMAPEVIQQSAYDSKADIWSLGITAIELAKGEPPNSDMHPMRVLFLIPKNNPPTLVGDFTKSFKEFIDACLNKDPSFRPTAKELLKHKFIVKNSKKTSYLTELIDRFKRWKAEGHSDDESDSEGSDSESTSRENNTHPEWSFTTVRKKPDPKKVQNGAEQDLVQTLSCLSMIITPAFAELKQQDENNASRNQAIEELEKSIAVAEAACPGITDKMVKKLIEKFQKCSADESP

[4] = target: human recombinant STK24 (aka MST3) (Homo sapiens, UniProt Q9Y6E0); conditions: inhibitor
Sequence of human recombinant STK24 (aka MST3) (Q9Y6E0 whole entry): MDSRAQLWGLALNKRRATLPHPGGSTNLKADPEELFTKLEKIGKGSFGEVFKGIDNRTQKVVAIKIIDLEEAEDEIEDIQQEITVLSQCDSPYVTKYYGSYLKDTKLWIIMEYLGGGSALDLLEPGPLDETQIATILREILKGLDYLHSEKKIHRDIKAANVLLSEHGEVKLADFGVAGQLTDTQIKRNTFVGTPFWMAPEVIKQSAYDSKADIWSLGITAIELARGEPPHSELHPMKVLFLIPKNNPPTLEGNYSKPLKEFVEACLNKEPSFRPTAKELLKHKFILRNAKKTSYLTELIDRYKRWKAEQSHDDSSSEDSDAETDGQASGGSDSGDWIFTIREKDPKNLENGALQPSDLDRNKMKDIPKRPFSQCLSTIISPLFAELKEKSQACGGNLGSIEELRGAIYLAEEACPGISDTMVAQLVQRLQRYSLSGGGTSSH

human recombinant STK4 = target: T3, human recombinant STK4 (Homo sapiens, UniProt Q13043); conditions: inhibitor
T3 sequence (Q13043 1-487): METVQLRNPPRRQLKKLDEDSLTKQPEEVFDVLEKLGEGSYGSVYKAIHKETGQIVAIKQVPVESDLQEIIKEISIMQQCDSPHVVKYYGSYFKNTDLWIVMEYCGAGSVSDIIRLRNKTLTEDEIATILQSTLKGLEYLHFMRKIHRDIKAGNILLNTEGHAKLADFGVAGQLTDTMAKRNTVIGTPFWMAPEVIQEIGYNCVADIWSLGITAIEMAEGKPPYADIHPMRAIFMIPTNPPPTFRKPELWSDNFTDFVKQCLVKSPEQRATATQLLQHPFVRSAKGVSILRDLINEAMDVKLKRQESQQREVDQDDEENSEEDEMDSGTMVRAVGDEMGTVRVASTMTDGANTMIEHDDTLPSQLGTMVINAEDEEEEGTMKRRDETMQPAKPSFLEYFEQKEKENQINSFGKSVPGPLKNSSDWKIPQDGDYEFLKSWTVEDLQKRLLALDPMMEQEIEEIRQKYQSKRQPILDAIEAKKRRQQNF

[5] = target: T1, human recombinant STK3 (MST2); conditions: inhibitor

| SMILES | IC50 [2] | MST4 % activity remaining (1µM) [3] | MST3 % activity remaining (1µM) [4] | STK4 % activity remaining (1µM) (human recombinant STK4) | further results |
| --- | --- | --- | --- | --- | --- |
| CNS(=O)(=O)CCNC(=O)c1c[nH]c2ncc(C3CC3)nc12 [A11] | – | 71% | 60% | 36% | STK3 % activity remaining (1µM) [5]: 89% |
| CN(C)c1ncnc2[nH]cc(-c3cccc(C#N)c3)c12 [B1, UNC-SOB-5-16] | 4300 nM | – | – | – | IC50 [1]: 113 nM |
| CS(=O)(=O)N1CCN(C(=O)c2c[nH]c3ncc(C4CC4)nc23)CC1 [A9, UNC-BE4-031] | > 10000 nM | – | – | – | – |
| CS(=O)(=O)N1CCN(C(=O)c2c[nH]c3ncc(C4CC4)nc23)CC1 [A9] | – | 106% | 92% | 98% | STK3 % activity remaining (1µM) [5]: 82% |
| COc1cccc([C@H](C)NC(=O)c2c[nH]c3ncc(-c4ccccc4)nc23)c1 [A5, UNC-BE4-040-1] | – | – | – | – | IC50 ([1]; ATP at Km, myelin basic protein substrate): 391 nM; IC50 ([2]; read-out: NB IC50, NanoBRET Tracer K10 at […], live HEK-293 cells): > 10000 nM |
| O=C(c1c[nH]c2ncc(C3CC3)nc12)N1CCOCC1 [A13] | – | 82% | 85% | 84% | STK3 % activity remaining (1µM) [5]: 138% |
| O=C(c1c[nH]c2ncc(C3CC3)nc12)N1CCOCC1 [A13, UNC-BE4-036] | > 10000 nM | – | – | – | – |
| CN1C(=O)c2sccc2N(C)c2nc(Nc3ccc(S(N)(=O)=O)cc3)ncc21 [XMU-MP-1] | – | 40% | 15% | 14% | – |

Now from value to molecule, other results behind:

| IC50 [2] | MST4 % activity remaining (1µM) [3] | MST3 % activity remaining (1µM) [4] | STK4 % activity remaining (1µM) (human recombinant STK4) | SMILES | further results |
| --- | --- | --- | --- | --- | --- |
| 9200 nM | – | – | – | C[C@H](NC(=O)c1c[nH]c2ncc(C3CC3)nc12)C(C)(C)O [A2, UNC-BE4-018] | IC50 [1]: 195 nM |
| – | 27% | 6% | 2% | C[C@H](NC(=O)c1c[nH]c2ncc(-c3ccccc3)nc12)C(C)(C)C [A3] | – |
| 2100 nM | – | – | – | C[C@H](NC(=O)c1c[nH]c2ncc(-c3ccccc3)nc12)C(C)(C)O [A4, UNC-BE4-36-1] | IC50 [1]: 124 nM |
| 2000 nM | – | – | – | C[C@H](NC(=O)c1c[nH]c2ncc(-c3ccccc3)nc12)C(C)(C)C [A3, UNC-BE4-035] | IC50 [1]: 7 nM |
| > 10000 nM | – | – | – | COCCCNC(=O)c1c[nH]c2ncc(C3CC3)nc12 [A6, UNC-BE4-032] | – |
| – | 54% | 12% | 7% | C[C@H](NC(=O)c1c[nH]c2ncc(C3CC3)nc12)C(C)(C)O [A2] | STK3 % activity remaining (1µM) [5]: 15% |
| > 10000 nM | – | – | – | CNS(=O)(=O)CCNC(=O)c1c[nH]c2ncc(C3CC3)nc12 [A11, UNC-BE4-033] | – |
| – | 74% | 31% | 26% | COCCCNC(=O)c1c[nH]c2ncc(C3CC3)nc12 [A6] | STK3 % activity remaining (1µM) [5]: 44% |
| – | 74% | 21% | 39% | COc1cccc([C@H](C)NC(=O)c2c[nH]c3ncc(-c4ccccc4)nc23)c1 [A5] | – |
| – | 51% | 9% | 4% | C[C@H](NC(=O)c1c[nH]c2ncc(-c3ccccc3)nc12)C(C)(C)O [A4] | – |
